# Counter-ions that a name gives are not always drawn.
# Target: D(3) dopamine receptor (Rattus norvegicus, UniProt P19020)
# Sequence (P19020 whole entry): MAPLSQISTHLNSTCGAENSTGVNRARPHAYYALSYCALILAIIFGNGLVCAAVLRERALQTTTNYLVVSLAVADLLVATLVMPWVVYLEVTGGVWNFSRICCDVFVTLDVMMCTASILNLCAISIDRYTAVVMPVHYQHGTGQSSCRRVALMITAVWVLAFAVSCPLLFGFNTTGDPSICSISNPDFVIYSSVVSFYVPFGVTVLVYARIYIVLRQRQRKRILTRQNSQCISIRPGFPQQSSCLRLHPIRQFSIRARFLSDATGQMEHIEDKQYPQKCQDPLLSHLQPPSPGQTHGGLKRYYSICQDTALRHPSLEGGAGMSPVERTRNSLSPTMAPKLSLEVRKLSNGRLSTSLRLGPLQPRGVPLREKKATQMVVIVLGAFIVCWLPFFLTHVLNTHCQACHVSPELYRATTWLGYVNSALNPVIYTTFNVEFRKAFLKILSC
row,SMILES,Ki [nM]
1,CN1CCN(C2=Nc3cc(F)ccc3Cc3ccccc32)CC1,255
2,CCCN[C@@H]1CCc2c(OC)cccc2[C@@H]1C,438
3,CN1CCN(C2=Nc3ccccc3Cc3ccccc32)CC1,919
4,OCCN1CCN(CCCN2c3ccccc3Sc3ccc(C(F)(F)F)cc32)CC1 [2-[4-[3-[2-(trifluoromethyl)phenothiazin-10-yl]propyl]piperazin-1-yl]ethanol;hydrochloride],0.71
5,CCc1cc(Cl)c(OC)c(C(=O)NC[C@@H]2CCCN2CC)c1O [3-Chloro-5-ethyl-N-((S)-1-ethyl-pyrrolidin-2-ylmethyl)-6-hydroxy-2-methoxy-benzamide],0.23
6,CN1CCc2cccc3c2[C@H]1Cc1ccc(O)c(O)c1-3 [APOKYN],43.9
7,COc1cc(N)c(Cl)cc1C(=O)N[C@@H]1C[C@H]2CCC[C@@H](C1)N2Cc1ccc(F)cc1 [BRL-34778],0.28
8,Cc1nc2n(c(=O)c1CCN1CCC(C(=O)c3ccc(F)cc3)CC1)CCS2 [CAS_86487-64-1],106
9,CCCN(CCC)C1C=Cc2c(OC)cccc2C1C (stereo not given) [CAS_5311190],36.5
10,"O=C(O)c1ccccc1C(=O)Nc1cccc2ccccc12 [NPA,(+)]",0.81
